# Test results from US9133262B2, “Somatostatin antagonists” (Ipsen Pharma S.A.S., priority 1996, dated 2015).
# Positions of bridges follow the written chain, without caps; N, C: chain ends. Non-standard residues stand in square brackets, D forms with d. Residues, ends and D or L forms follow the SMILES beside them. Phe(F5) = N[C@@H](Cc1c(F)c(F)c(F)c(F)c1F)C(=O)O; Phe(4-Cl) = N[C@@H](Cc1ccc(Cl)cc1)C(=O)O; dPhe(4-Cl) = N[C@H](Cc1ccc(Cl)cc1)C(=O)O; Dip = N[C@H](C(=O)O)C(c1ccccc1)c1ccccc1; Phe(3-F) = N[C@@H](Cc1cccc(F)c1)C(=O)O; Phe(4-F) = N[C@@H](Cc1ccc(F)cc1)C(=O)O; 2Nal = N[C@@H](Cc1ccc2ccccc2c1)C(=O)O; d2Nal = N[C@H](Cc1ccc2ccccc2c1)C(=O)O; Phe(2-F) = N[C@@H](Cc1ccccc1F)C(=O)O; 3Pal = N[C@@H](Cc1cccnc1)C(=O)O; Tle = CC(C)(C)[C@H](N)C(=O)O
# System: rat pituitary cells
# Type: cell-based
# Conditions: 3 h
# Description: Bioassay on the In Vitro Release of Growth Hormone
# (a) Rat Pituitary Cell Dispersion
# Pituitaries from adult Charles River CD male rats (Wilmington, Mass.) housed under controlled conditions were dispersed and cultured using aseptic technique by modification of previously described methods (Hoefer, M. T., et al., Mol. Cell. Endocrinol. 35:229 (1984); Ben-Jonathan, N., et al., Methods Enzymol. 103:249 (1983); and Heiman, M. L., et al., Endocrinology 116:410 (1985)). Pituitaries were removed from sacrificed rats, sectioned, and then placed into a siliconized, liquid scintillation vial containing 2 ml 0.2% trypsin (Worthington Biochemicals, Freehold, N.J.) in sterile-filtered Krebs-Ringer bicarbonate buffer supplemented with 1% bovine serum albumin, 14 mM glucose, modified Eagle medium (MEM) vitamin solution, and MEM amino acids (Gibco Laboratories, Grand Island, N.Y.) (KRBGA). All glassware was siliconized as described by Sayers, et al., Endocrinology 88:1063 (1971). The fragments were incubated in a water bath for 35 min at 37° C. with agitation. The vial contents then were poured into a scintillation vial containing 2 ml 0.1% DNase (Sigma Chemical Co., St. Louis, Mo.) in KRBGA and incubated for 2 min at 37° C. with agitation. After incubation, the tissue was decanted into a 15 ml centrifuge tube and allowed to settle. Medium was discarded, and pituitary sections were washed 3 times with 1 ml fresh-KRBGA. The cells were then dispersed in 2 ml 0.05% LBI (lima bean trypsin inhibitor, Worthington Biochemicals) by gently drawing the fragments into and expelling them out of a siliconized, fire polished Pasteur pipette. Dispersed cells were then filtered through a 630 μm diameter Nylon mesh (Tetko, Elmsford, N.Y.) into a fresh 15 ml centrifuge tube. An additional 2 ml of 0.05% LBI solution was used to rinse the first tube and was transferred to the second tube with filtering.
# The dispersed cells were then further diluted with approximately 15 ml sterile-filtered Dulbecco's modified Eagle medium (GIBCO), which was supplemented with 2.5% fetal calf serum (GIBCO), 3% horse serum (GIBCO), 10% fresh rat serum (stored on ice for no longer than 1 hr) from the pituitary donors, 1% MEM non-essential amino acids (GIBCO), and gentamycin (10 ng/ml; Sigma) and nystatin (10,000 U/ml; GIBCO). The cells were poured into a 50 ml round-bottomed glass extraction flask with a large diameter opening and then randomly plated at a density of approximately 200,000 cells per well (Co-star cluster 24; Rochester Scientific Co., Rochester, N.Y.). The plated cells were maintained in the above Dulbecco's medium in a humidified atmosphere of 95% air and 5% CO2 at 37° C. for 4-5 days.
# (c) Experimental Incubation and IC50 Determination
# In preparation for a hormone challenge, the cells were washed 3 times with medium 199 (GIBCO) to remove old medium and floating cells. Each treatment well contained a total volume of 1 ml medium 199 containing 1% BSA (fraction V; Sigma) with treatments as described below. Each antagonist candidate was tested using a single 24-well cell culture plate. Each treatment was performed in triplicate. Each plate contained 8 treatment groups: one 1 nM growth hormone releasing factor (GRF) (1-29)NH2-stimulated control group; one 1 nM somatostatin-inhibited control group in the presence of 1 nM GRF(1-29)NH2; and 6 doses of a given antagonist in the presence of both 1 nM SRIF and 1 nM GRF per plate. After 3 hrs at 37° C. in a air/carbon dioxide atmosphere (95/5%), the medium was removed and stored at −20° C. until radioimmunoassayed for growth hormone content. IC50's of each antagonist versus 1 nM SRIF were calculated using a computer program (SigmaPlot, Jandel Scientific, San Rafael, Calif.) with the maximum response constrained to the value of the 1 nM GRF(1-29)NH2-stimulated control.
row,SMILES,IC50 [nM]
1,"CC(C)[C@H](NC(=O)[C@H](CCCCN)NC(=O)[C@@H](Cc1c[nH]c2ccccc12)NC(=O)[C@H](Cc1ccc(O)cc1)NC(=O)[C@@H](Cc1ccc(Cl)cc1)NC(=O)[C@@H](N)Cc1ccc2ccccc2c1)C(=O)N[C@@H](Cc1ccccc1)C(=O)N[C@H](C(N)=O)[C@@H](C)O [Analog No. 1, H2-β-Nal-D-Cpa-Tyr-D-Trp-Lys-Val-Phe-Thr-NH2] (H-[2Nal][dPhe(4-Cl)]Y[dW]KVFT-NH2)",3030
2,"CC(C)[C@@H]1NC(=O)[C@H](CCCCN)NC(=O)[C@@H](Cc2c[nH]c3ccccc23)NC(=O)[C@H](Cc2cccnc2)NC(=O)[C@H](NC(=O)[C@@H](N)Cc2ccc3ccccc3c2)CSSC[C@@H](C(=O)N[C@@H](Cc2ccc3ccccc3c2)C(N)=O)NC1=O [Analog No. 3, H2-β-Nal-D-Cys-Pal-D-Trp-Lys-Val-Cys-β-Nal-NH2] (H-[2Nal][dC][3Pal][dW]KVC[2Nal]-NH2; disulfide 2-7)",10
3,"CC(C)[C@@H]1NC(=O)[C@H](CCCCN)NC(=O)[C@@H](Cc2c[nH]c3ccccc23)NC(=O)[C@H](Cc2cccnc2)NC(=O)[C@H](NC(=O)[C@@H](N)Cc2ccccc2)CSSC[C@@H](C(=O)N[C@@H](Cc2ccc3ccccc3c2)C(N)=O)NC1=O [Analog No. 4, H2-Phe-D-Cys-Pal-D-Trp-Lys-Val-Cys-β-Nal-NH2] (H-F[dC][3Pal][dW]KVC[2Nal]-NH2; disulfide 2-7)",30
4,"CC(=O)N[C@@H](Cc1ccc2ccccc2c1)C(=O)N[C@@H]1CSSC[C@@H](C(=O)N[C@@H](Cc2ccc3ccccc3c2)C(N)=O)NC(=O)[C@H](C(C)C)NC(=O)[C@H](CCCCN)NC(=O)[C@@H](Cc2c[nH]c3ccccc23)NC(=O)[C@H](Cc2ccc(O)cc2)NC1=O [Analog No. 5, (H)(CH3CO)-β-Nal-D-Cys-Tyr-D-Trp-Lys-Val-Cys-β-Nal-NH2] (Ac-[2Nal][dC]Y[dW]KVC[2Nal]-NH2; disulfide 2-7)",60
5,"C[C@@H](O)[C@H](NC(=O)[C@@H]1CSSC[C@@H](NC(=O)[C@@H](N)Cc2ccccc2)C(=O)N[C@@H](Cc2cccnc2)C(=O)N[C@H](Cc2c[nH]c3ccccc23)C(=O)N[C@@H](CCCCN)C(=O)N[C@@H]([C@@H](C)O)C(=O)N1)C(N)=O [Analog No. 6, H2-Phe-D-Cys-Pal-D-Trp-Lys-Thr-Cys-Thr-NH2] (H-F[dC][3Pal][dW]KTCT-NH2; disulfide 2-7)",900
6,"CC(C)(C)[C@@H]1NC(=O)[C@H](CCCCN)NC(=O)[C@@H](Cc2c[nH]c3ccccc23)NC(=O)[C@H](Cc2cccnc2)NC(=O)[C@H](NC(=O)[C@H](N)Cc2ccc(Cl)cc2)CSSC[C@@H](C(=O)N[C@@H](Cc2ccc(Cl)cc2)C(N)=O)NC1=O [Analog No. 7, H2-D-p-Cl-Phe-D-Cys-Pal-D-Trp-Lys-Tle-Cys-p-Cl-Phe-NH2] (H-[dPhe(4-Cl)][dC][3Pal][dW]K[Tle]C[Phe(4-Cl)]-NH2; disulfide 2-7)",71
7,"CC(C)[C@H](NC(=O)[C@H](CCCCN)NC(=O)[C@@H](Cc1c[nH]c2ccccc12)NC(=O)[C@H](Cc1ccc(O)cc1)NC(=O)[C@@H](Cc1ccc(Cl)cc1)NC(=O)[C@H](N)Cc1ccc2ccccc2c1)C(=O)N[C@@H](Cc1ccccc1)C(=O)N[C@H](C(N)=O)[C@@H](C)O [Analog No. 8, H2-D-β-Nal-D-Cpa-Tyr-D-Trp-Lys-Val-Phe-Thr-NH2] (H-[d2Nal][dPhe(4-Cl)]Y[dW]KVFT-NH2)",3960
8,"CC(C)[C@@H]1NC(=O)[C@H](CCCCN)NC(=O)[C@@H](Cc2c[nH]c3ccccc23)NC(=O)[C@H](Cc2cccnc2)NC(=O)[C@H](NC(=O)[C@@H](N)C(c2ccccc2)c2ccccc2)CSSC[C@@H](C(=O)N[C@H](C(N)=O)C(c2ccccc2)c2ccccc2)NC1=O [Analog No. 10, H2-Dip-D-Cys-Pal-D-Trp-Lys-Val-Cys-Dip-NH2] (H-[Dip][dC][3Pal][dW]KVC[Dip]-NH2; disulfide 2-7)",620
9,"CC(C)[C@@H]1NC(=O)[C@H](CCCCN)NC(=O)[C@@H](Cc2c[nH]c3ccccc23)NC(=O)[C@H](Cc2c[nH]cn2)NC(=O)[C@H](NC(=O)[C@@H](N)Cc2c(F)c(F)c(F)c(F)c2F)CSSC[C@@H](C(=O)N[C@@H](Cc2c(F)c(F)c(F)c(F)c2F)C(N)=O)NC1=O [Analog No. 11, H2—F5-Phe-D-Cys-His-D-Trp-Lys-Val-Cys-F5-Phe-NH2] (H-[Phe(F5)][dC]H[dW]KVC[Phe(F5)]-NH2; disulfide 2-7)",720
10,"CC(C)[C@@H]1NC(=O)[C@H](CCCCN)NC(=O)[C@@H](Cc2c[nH]c3ccccc23)NC(=O)[C@H](Cc2cccnc2)NC(=O)[C@H](NC(=O)[C@@H](N)Cc2ccc(F)cc2)CSSC[C@@H](C(=O)N[C@@H](Cc2ccc(F)cc2)C(N)=O)NC1=O [Analog No. 12, H2-p-F-Phe-D-Cys-Pal-D-Trp-Lys-Val-Cys-p-F-Phe-NH2] (H-[Phe(4-F)][dC][3Pal][dW]KVC[Phe(4-F)]-NH2; disulfide 2-7)",56
11,"CC(C)[C@@H]1NC(=O)[C@H](CCCCN)NC(=O)[C@@H](Cc2c[nH]c3ccccc23)NC(=O)[C@H](Cc2cccnc2)NC(=O)[C@H](NC(=O)[C@@H](N)C(c2ccccc2)c2ccccc2)CSSC[C@@H](C(=O)N[C@@H](Cc2ccc3ccccc3c2)C(N)=O)NC1=O [Analog No. 13, H2-Dip-D-Cys-Pal-D-Trp-Lys-Val-Cys-β-Nal-NH2] (H-[Dip][dC][3Pal][dW]KVC[2Nal]-NH2; disulfide 2-7)",110
12,"CC(C)[C@@H]1NC(=O)[C@H](CCCCN)NC(=O)[C@@H](Cc2c[nH]c3ccccc23)NC(=O)[C@H](Cc2cccnc2)NC(=O)[C@H](NC(=O)[C@@H](N)Cc2cccc(F)c2)CSSC[C@@H](C(=O)N[C@@H](Cc2cccc(F)c2)C(N)=O)NC1=O [Analog No. 14, H2-m-F-Phe-D-Cys-Pal-D-Trp-Lys-Val-Cys-m-F-Phe-NH2] (H-[Phe(3-F)][dC][3Pal][dW]KVC[Phe(3-F)]-NH2; disulfide 2-7)",110
13,"CC(C)[C@@H]1NC(=O)[C@H](CCCCN)NC(=O)[C@@H](Cc2c[nH]c3ccccc23)NC(=O)[C@H](Cc2cccnc2)NC(=O)[C@H](NC(=O)[C@@H](N)Cc2ccccc2F)CSSC[C@@H](C(=O)N[C@@H](Cc2ccccc2F)C(N)=O)NC1=O [Analog No. 15, H2-o-F-Phe-D-Cys-Pal-D-Trp-Lys-Val-Cys-o-F-Phe-NH2] (H-[Phe(2-F)][dC][3Pal][dW]KVC[Phe(2-F)]-NH2; disulfide 2-7)",140
14,"CC(C)[C@@H]1NC(=O)[C@H](CCCCN)NC(=O)[C@@H](Cc2c[nH]c3ccccc23)NC(=O)[C@H](Cc2cccnc2)NC(=O)[C@H](NC(=O)[C@@H](N)Cc2c(F)c(F)c(F)c(F)c2F)CSSC[C@@H](C(=O)N[C@@H](Cc2c(F)c(F)c(F)c(F)c2F)C(N)=O)NC1=O [Analog No. 16, H2—F5-Phe-D-Cys-Pal-D-Trp-Lys-Val-Cys-F5-Phe-NH2] (H-[Phe(F5)][dC][3Pal][dW]KVC[Phe(F5)]-NH2; disulfide 2-7)",820

# Same assay, conditions: cultured rat pituitary cells; 1 nM SRIF and 1 nM GRF(1-29)NH2; 3 hrs at 37° C.; growth hormone by radioimmunoassay; read-out: IC50 of antagonist versus 1 nM SRIF (growth hormone release)
row,SMILES,IC50 [nM]
1,"CC(C)[C@@H]1NC(=O)[C@H](CCCCN)NC(=O)[C@@H](Cc2c[nH]c3ccccc23)NC(=O)[C@H](Cc2ccc(O)cc2)NC(=O)[C@H](NC(=O)[C@@H](N)Cc2ccc3ccccc3c2)CSSC[C@@H](C(=O)N[C@@H](Cc2ccc3ccccc3c2)C(N)=O)NC1=O [Analog No. 2, H2-β-Nal-D-Cys-Tyr-D-Trp-Lys-Val-Cys-β-Nal-NH2] (H-[2Nal][dC]Y[dW]KVC[2Nal]-NH2; disulfide 2-7)",40
2,"CC(C)[C@@H]1NC(=O)[C@H](CCCCN)NC(=O)[C@@H](Cc2c[nH]c3ccccc23)NC(=O)[C@H](Cc2ccc(O)cc2)NC(=O)[C@H](NC(=O)[C@H](N)Cc2ccc3ccccc3c2)CSSC[C@@H](C(=O)N[C@@H](Cc2ccc3ccccc3c2)C(N)=O)NC1=O [Analog No. 9, H2-D-β-Nal-D-Cys-Tyr-D-Trp-Lys-Val-Cys-β-Nal-NH2] (H-[d2Nal][dC]Y[dW]KVC[2Nal]-NH2; disulfide 2-7)",1360
